From patent US20240409585A1, “MACROCYCLIC IMMUNOMODULATORS” (priority 2021, published 2024)
Numbered stars: 1 amine (or outer) side, 2 acyl side, 3 side chain; on linkers, the order of the positions; unused ones are H or OH. Bridge positions count the residues as written; N and C are the ends. Square brackets hold non-standard residues; d marks the D form. Peptide text beside a SMILES is read from it. * marks the point of attachment. ξ: configuration not given here. X27 = O=C([C@H](Cc1ccc2ncccc2c1)N[*:1])[*:2]; Bip = N[C@@H](Cc1ccc(-c2ccccc2)cc1)C(=O)O; Phe(3-CN) = N#Cc1cccc(C[C@H](N)C(=O)O)c1; Phe(3-Me) = Cc1cccc(C[C@H](N)C(=O)O)c1; 1Nal = N[C@@H](Cc1cccc2ccccc12)C(=O)O; 4Pal = N[C@@H](Cc1ccncc1)C(=O)O; Cha = N[C@@H](CC1CCCCC1)C(=O)O; Cit = NC(=O)NCCC[C@H](N)C(=O)O; Ile(3ξ) = CCC(C)[C@H](N)C(=O)O; Thr(3ξ) = CC(O)[C@H](N)C(=O)O; Carboxymethyl = O=C(O)C*; NMeA = CN[C@@H](C)C(=O)O; Dab = NCC[C@H](N)C(=O)O; Dap = NC[C@H](N)C(=O)O; Piv = CC(C)(C)C(=O)*

Biological target: T1, PE-labeled human PD-L1-Ig binding to Jurkat cell line over-expressing human PD-1 (Jurkat-PD-1) (Homo sapiens, UniProt Q15116)
T1 construct: expressed in transfected cells; host or cells: Jurkat
T1 sequence (Q15116 25-288): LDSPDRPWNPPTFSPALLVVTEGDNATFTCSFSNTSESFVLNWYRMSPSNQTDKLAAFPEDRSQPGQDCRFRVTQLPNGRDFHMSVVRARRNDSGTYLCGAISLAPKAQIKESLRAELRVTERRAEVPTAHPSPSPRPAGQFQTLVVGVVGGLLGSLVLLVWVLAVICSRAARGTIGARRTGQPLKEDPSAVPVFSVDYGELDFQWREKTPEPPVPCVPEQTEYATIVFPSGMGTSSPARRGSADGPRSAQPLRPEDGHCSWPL
Assay: Jurkat-PD-1 Cell Binding High-Content Screening Assay (CBA): Method 1
Settings: Jurkat-hPD-1 cells, PE-labeled PD-L1-Ig 20 nM final; read-out: Jurkat HPDL1 PD1 IC50 (uM) (Method 1)

Q: How did the IC50 turn out when `CC(C)C[C@@H]1NC(=O)[C@H](CCCNC(=N)N)NC(=O)[C@H](Cc2cccc3ccccc23)NC(=O)[C@H](C)N(C)C(=O)[C@H](CCCNC(=N)N)NC(=O)[C@H](Cc2ccc(-c3ccccc3)cc2)NC(=O)[C@H](C(C)C)NC(=O)[C@H](Cc2c[nH]c3ccccc23)NC(=O)[C@H](CC(=O)O)NC(=O)[C@H](Cc2ccc(O)cc2)NC(=O)[C@H](CC(N)=O)NC(=O)CSC[C@@H](C(=O)N[C@@H](C)C(N)=O)NC(=O)[C@H]([C@@H](C)O)NC(=O)[C@H](C(C)C)NC1=O` [Compound 1185] ({CH2CO}-NYDWV[Bip]R[NMeA][1Nal]RLVTCA-NH2; thioether N-14) was run?
A: 0.35 µM

Q: For `CC[C@H](C)[C@@H]1NC(=O)[C@H](Cc2ccc(-c3ccccc3)cc2)NC(=O)[C@H](C(C)C)NC(=O)[C@H](Cc2c[nH]c3ccccc23)NC(=O)[C@H](CC(=O)O)NC(=O)[C@H](Cc2ccncc2)NC(=O)[C@H](Cc2ccncc2)NC(=O)CSC[C@@H](C(=O)N[C@@H](C)C(N)=O)NC(=O)[C@H]([C@@H](C)O)NC(=O)[C@H](C(C)C)NC(=O)[C@H](CC(C)C)NC(=O)[C@H](CCN)NC(=O)[C@@H](CC(C)C)NC(=O)[C@H](C)N(C)C1=O` [Compound 1410] ({CH2CO}-[4Pal][4Pal]DWV[Bip]I[NMeA][dL][Dab]LVTCA-NH2; thioether N-14), which IC50 is on record?
A: 0.02 µM

Q: Which IC50 does the source give for `CCC(C)[C@@H]1NC(=O)[C@H](Cc2ccc(-c3ccccc3)cc2)NC(=O)[C@H](CC(C)C)NC(=O)[C@H](Cc2c[nH]c3ccccc23)NC(=O)[C@H](CC(=O)O)NC(=O)[C@H](Cc2ccc(OCC(=O)O)cc2)NC(=O)[C@H](C(C)O)NC(=O)CSC[C@@H](C(=O)N[C@@H](CC(N)=O)C(=O)O)NC(=O)[C@H](CC(=O)O)NC(=O)[C@H](C(C)C)NC(=O)[C@H](CC(C)C)NC(=O)[C@H](CCN)NC(=O)[C@@H](CC(C)C)NC(=O)[C@H](C)N(C)C1=O` (stereo partly drawn) [Compound 2225] ({CH2CO}-[Thr(3ξ)]Y(Carboxymethyl)DWL[Bip][Ile(3ξ)][NMeA][dL][Dab]LVDCN-OH; thioether N-14) here?
A: 0.08 µM

Q: How did the IC50 turn out when `CC(C)C[C@@H]1NC(=O)[C@H](CCCNC(=N)N)NC(=O)[C@@H](CC(N)=O)NC(=O)[C@H](C)N(C)C(=O)[C@H](CCCNC(=N)N)NC(=O)[C@H](Cc2ccc(-c3ccccc3)cc2)NC(=O)[C@H](C(C)C)NC(=O)[C@H](Cc2c[nH]c3ccccc23)NC(=O)[C@H](CC(=O)O)NC(=O)[C@H](Cc2ccc(O)cc2)NC(=O)[C@H](Cc2ccccc2)NC(=O)CSC[C@@H](C(=O)NCC(N)=O)NC(=O)[C@H](CO)NC(=O)[C@H](C(C)C)NC1=O` [Compound 1019] ({CH2CO}-FYDWV[Bip]R[NMeA][dN]RLVSCG-NH2; thioether N-14) was run?
A: 0.36 µM

Q: For `Cc1cccc(C[C@@H]2NC(=O)[C@H](CC(=O)O)NC(=O)[C@H](Cc3ccc(OCC(=O)O)cc3)NC(=O)[C@H](CN)NC(=O)CSC[C@@H](C(=O)N[C@@H](CCN)C(N)=O)NC(=O)[C@H]([C@@H](C)O)NC(=O)[C@H](C(C)C)NC(=O)[C@H](CC3CCCCC3)NC(=O)[C@H](CCNC(=O)C(C)(C)C)NC(=O)[C@@H](CC(C)C)NC(=O)[C@H](C)N(C)C(=O)[C@H](Cc3ccc(OCC(=O)O)cc3)NC(=O)[C@H](Cc3ccc(-c4ccccc4)cc3)NC(=O)[C@H](Cc3ccc(OCC(=O)O)cc3)NC2=O)c1` [Compound 1864] ({CH2CO}-[Dap]Y(Carboxymethyl)D[Phe(3-Me)]Y(Carboxymethyl)[Bip]Y(Carboxymethyl)[NMeA][dL][Dab](Piv)[Cha]VTC[Dab]-NH2; thioether N-14), which IC50 is on record?
A: 0.04 µM

Q: `CC(C)C[C@@H]1NC(=O)[C@H](CCN)NC(=O)[C@@H](CC(C)C)NC(=O)[C@H](C)N(C)C(=O)[C@H](CCCNC(N)=O)NC(=O)[C@H](Cc2ccc(-c3ccccc3)cc2)NC(=O)[C@H](C(C)C)NC(=O)[C@H](Cc2c[nH]c3ccccc23)NC(=O)[C@H](CC(=O)O)NC(=O)[C@H](Cc2cccc(C#N)c2)NC(=O)[C@H](CC(N)=O)NC(=O)CSC[C@@H](C(=O)N[C@@H](C)C(N)=O)NC(=O)[C@H]([C@@H](C)O)NC(=O)[C@H](C(C)C)NC1=O` [Compound 1314] ({CH2CO}-N[Phe(3-CN)]DWV[Bip][Cit][NMeA][dL][Dab]LVTCA-NH2; thioether N-14) was tested. Which IC50 did it give?
A: 0.04 µM

Q: For `CCC(C)[C@@H]1NC(=O)[C@H](Cc2ccc(-c3ccccc3)cc2)NC(=O)[C@H](C(C)C)NC(=O)[C@H](Cc2cccc(C)c2)NC(=O)[C@H](CC(=O)O)NC(=O)[C@H](Cc2ccc(OCC(=O)O)cc2)NC(=O)[C@H](Cc2ccncc2)NC(=O)CSC[C@@H](C(=O)N[C@@H](CO)C(=O)O)NC(=O)[C@H](CO)NC(=O)[C@H](C(C)C)NC(=O)[C@H](CC2CCCCC2)NC(=O)[C@H](CCN)NC(=O)[C@@H](CC(C)C)NC(=O)[C@H](C)N(C)C1=O` (stereo partly drawn) [Compound 2234] ({CH2CO}-[4Pal]Y(Carboxymethyl)D[Phe(3-Me)]V[Bip][Ile(3ξ)][NMeA][dL][Dab][Cha]VSCS-OH; thioether N-14), which IC50 is on record?
A: 0.02 µM

Q: For `CC(C)C[C@@H]1NC(=O)[C@H](Cc2c[nH]c3ccccc23)NC(=O)[C@H](CC(=O)O)NC(=O)[C@H](Cc2ccc(O)cc2)NC(=O)[C@H](Cc2ccccc2)NC(=O)CSC[C@@H](C(=O)N[C@@H](C)C(N)=O)NC(=O)[C@H](CO)NC(=O)[C@H](C(C)C)NC(=O)[C@H](CC(C)C)NC(=O)[C@H](CCN)NC(=O)[C@@H](C)NC(=O)[C@H](C)N(C)C(=O)[C@H](CCCNC(=N)N)NC(=O)[C@H](Cc2ccc(-c3ccccc3)cc2)NC1=O` [Compound 1751] ({CH2CO}-FYDWL[Bip]R[NMeA][dA][Dab]LVSCA-NH2; thioether N-14), which IC50 is on record?
A: 0.03 µM

Q: With `CC(C)C[C@@H]1NC(=O)[C@H](CCN)NC(=O)[C@@H](CC(C)C)NC(=O)[C@H](C)N(C)C(=O)[C@H](CCCNC(=N)N)NC(=O)[C@H](Cc2ccc(-c3ccccc3)cc2)NC(=O)[C@H](C(C)C)NC(=O)[C@H](Cc2c[nH]c3ccccc23)NC(=O)[C@H](CC(=O)O)NC(=O)[C@H](Cc2cnc[nH]2)NC(=O)[C@H](CC(N)=O)NC(=O)CSC[C@@H](C(=O)N[C@@H](C)C(N)=O)NC(=O)[C@H]([C@@H](C)O)NC(=O)[C@H](C(C)C)NC1=O` [Compound 1137] ({CH2CO}-NHDWV[Bip]R[NMeA][dL][Dab]LVTCA-NH2; thioether N-14) as the compound, how does the IC50 read?
A: 0.27 µM

Q: How did the IC50 turn out when `CCC(C)[C@@H]1NC(=O)[C@H](Cc2ccc(-c3ccccc3)cc2)NC(=O)[C@H](C(C)C)NC(=O)[C@H](Cc2c[nH]c3ccccc23)NC(=O)[C@H](CC(=O)O)NC(=O)[C@H](Cc2ccc(O)cc2)NC(=O)[C@H](Cc2ccc3ncccc3c2)NC(=O)CSC[C@@H](C(=O)N[C@@H](C)C(N)=O)NC(=O)[C@H](C(C)O)NC(=O)[C@H](C(C)C)NC(=O)[C@H](CC2CCCCC2)NC(=O)[C@H](CCN)NC(=O)[C@@H](CC(C)C)NC(=O)[C@H](C)N(C)C1=O` (stereo partly drawn) [Compound 2045] ({CH2CO}-[X27]YDWV[Bip][Ile(3ξ)][NMeA][dL][Dab][Cha]V[Thr(3ξ)]CA-NH2; thioether N-14) was run?
A: 0.01 µM

Q: For `CC(C)C[C@H]1NC(=O)[C@H](C)N(C)C(=O)[C@H](C(C)C)NC(=O)[C@H](Cc2ccc(-c3ccccc3)cc2)NC(=O)[C@H](C(C)C)NC(=O)[C@H](Cc2c[nH]c3ccccc23)NC(=O)[C@H](CC(=O)O)NC(=O)[C@H](Cc2ccncc2)NC(=O)[C@H](Cc2ccc(OCC(=O)O)cc2)NC(=O)CSC[C@@H](C(N)=O)NC(=O)[C@H](CCCCN)NC(=O)[C@H](C(C)C)NC(=O)[C@H](CC2CCCCC2)NC(=O)[C@H](CC(N)=O)NC1=O` [Compound 2246] ({CH2CO}-Y(Carboxymethyl)[4Pal]DWV[Bip]V[NMeA][dL]N[Cha]VKC-NH2; thioether N-14), which IC50 is on record?
A: 0.03 µM
